Experimental data: US8143282B2, “Heterocyclic compounds” (S*BIO Pte Ltd., priority 2005, dated 2012)

Key:
HDAC1 enzyme = target: T1, HDAC1 enzyme (Homo sapiens, UniProt Q13547); assay: In vitro HDAC assay for determination of IC50 values (BIOMOL fluorescent-based HDAC activity assay); format: biochemical
T1 construct: Amplification of human HDAC1 coding region from this cDNA library was cloned separately into the baculovirus expression pDEST20 vector; made in house; host or cells: SF9 insect cells, pDEST20-HDAC1 baculovirus
T1 sequence (Q13547 whole entry): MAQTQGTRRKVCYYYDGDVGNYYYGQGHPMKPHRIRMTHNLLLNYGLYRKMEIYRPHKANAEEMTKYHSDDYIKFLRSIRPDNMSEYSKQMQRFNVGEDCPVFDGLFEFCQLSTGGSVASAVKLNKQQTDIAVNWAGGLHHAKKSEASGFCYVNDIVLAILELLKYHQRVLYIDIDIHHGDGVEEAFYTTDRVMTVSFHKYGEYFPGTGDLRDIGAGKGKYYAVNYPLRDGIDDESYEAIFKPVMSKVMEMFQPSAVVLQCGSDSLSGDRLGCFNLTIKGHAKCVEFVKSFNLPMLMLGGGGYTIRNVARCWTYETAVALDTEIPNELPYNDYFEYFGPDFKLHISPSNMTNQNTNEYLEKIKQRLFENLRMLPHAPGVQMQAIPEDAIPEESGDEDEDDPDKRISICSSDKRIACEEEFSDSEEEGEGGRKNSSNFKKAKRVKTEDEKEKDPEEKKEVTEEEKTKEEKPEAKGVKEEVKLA
Method in brief: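 Recombinant GST-HDAC1, cloned from SW620 cDNA and expressed in Sf9 cells, tested in a fluorogenic Fluor de Lys deacetylase assay. Developer was added for 10 min and fluorescence read at 360/460 nm. IC50 came from concentration series.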

Colo205 cells = assay: Cell-based proliferation assay for GI50 (CyQUANT), Colo205; details: Homo sapiens, COLO 205, 96 h treatment, read-out: Cellular or Growth Inhibition Activity in Colo205 cells, GI50
Method in brief: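 Cells were seeded at 1000 (PC3), 5000 (Colo205), 6000 (HCT116) or 4000 (HEP3B) per well and left 24 h at 37° C. Compound treatment lasted 96 h. Growth was read by CyQUANT, and GI50 (50% growth inhibition) came from dose-response curves.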

[1] = Measurement of microsomal stability; format: in vitro ADME; details: pooled human liver microsomes, pH 7.4; human liver microsome, 5 μM test compound, 1.0 mg/ml microsomal protein
Experimental: Metabolic stability measurements in the in vitro using liver microsomes aids in the prediction of the in vivo hepatic clearance and the compound stability towards phase I biotransformation reactions mediated by P450 isozymes.
Pooled human liver microsome (HLM was purchased from BD Gentest (BD BioSciences). The incubations consisted of test compound (5 μM) or control compound (Verapamil), NADPH-generating system solution A (25 mM NADP^+, 66 mM glucose-6-phosphate, 66 mM MgCl2 in H2O), NADPH-generating system solution B (40 U/ml glucose-6-phosphate dehydrogenase in 5 mM sodium citrate) and 1.0 mg/ml microsomal protein, respectively, in 100 mM potassium phosphate buffer (pH 7.4). Samples were incubated for 0, 5, 15, 30, 45, 60 min. Reaction was terminated with ice-cold 80% acetonitrile and 20% DMSO. Samples were subsequently centrifuged at 4° C. for 15 min at 2,000 rpm. 100 μL of the supernatant was transferred to the LC-MS Plate for analysis. Before quantitative analysis, the compound was tuned in LC/MS machine to get the optimized MS condition. Liquid chromatography was performed on a Luna C18 column (Phenomenex U.S.A, Torrance, Calif.) (2×50 mm, 5 μM). % of the compound remaining (by area) at each time point is calculated with respect to time 0 min. Plot % remaining against time (min) to obtain the curve and use the Prism software to obtain the t1/2.

HCT116 = assay: Cell-based proliferation assay for GI50 (CyQUANT), HCT116; details: Homo sapiens, HCT-116; HCT116, 96 h treatment; read-out: Cellular or Growth Inhibition Activity, GI50, HCT116
Experimental: (§1) Human colon cancer cell lines (Colo205, HCT116), Ovarian cancer cell line (A2780), Hepatoma cell line (HEP3B), Prostate cancer cell line (PC3) were obtained from ATCC or ECACC. Colo205 cells were cultivated in RPMI 1640 containing 2 mM L-Glutamine, 5% FBS, 1.0 mM Na Pyruvate, 1 U/ml of penicillin and 1 μg of streptomycin. HCT116 cells were cultivated in McCoy's containing RPMI 1640 containing 2 mM L-Glutamine, 5% FBS, 1 U/ml of penicillin and 1 μg of streptomycin. A2780 cells were cultivated in RPMI 1640 containing 2 mM L-Glutamine, 5% FBS, 1 U/ml of penicillin and 1 μg of streptomycin. HEP3B cells were cultivated in EMEM containing 2 mM L-glutamine, 5% FBS, 1% non essential amino acid, 1 mM Na Pyruvate, 1 U/ml of penicillin and 1 μg of streptomycin. PC3 cells were cultivated in F12K, 2 mM L-glutamine, 5% FBS, 1 U/ml of penicillin and 1 μg of streptomycin. PC3, Colo205, and HCT116 cells were seeded in 96-wells plate at 1000, 5000 and 6000 cells per well respectively. A2780 and HEP3B cells were seeded in 96-wells plate at 4000 cells per well respectively. The plates were incubated at 37° C., 5% CO2, for 24 h. Cells were treated with compounds at various concentrations for 96 h. Cell growth was then monitored using CyQUANT® cell proliferation assay (Invitrogen Pte Ltd). Dose response curves were plotted to determine GI50 values for the compounds using XL-fit (ID Business Solution, Emeryville, Calif.). GI50 is defined as the concentration of compound required for 50% inhibition of cell growth.

A2780 = assay: Cell-based proliferation assay for GI50 (CyQUANT), A2780; details: Homo sapiens; A2780, 96 h treatment; read-out: Cellular or Growth Inhibition Activity, GI50, A2780
Experimental: as §1

PC3 = assay: Cell-based proliferation assay for GI50 (CyQUANT), PC3; details: Homo sapiens, PC-3; PC3, 96 h treatment; read-out: Cellular or Growth Inhibition Activity, GI50, PC3
Experimental: as §1

SMILES	IC50 (HDAC1 enzyme)	GI50 (Colo205 cells)	half-life at 5 μM [1]	GI50 (HCT116)	GI50 (A2780)	GI50 (PC3)
CCN(CC)CCn1c(CCC(F)(F)F)nc2cc(/C=C/C(=O)NO)ccc21 [Compound 14, 3-[1-(2-Diethylamino-ethyl)-2-(3,3,3-trifluoro-propyl)-1H-benzoimidazol-5-yl]-N-hydroxy-acrylamide]	77 nM	630 nM	> 30 min	–	–	–
CC(C)c1nc2cc(/C=C/C(=O)NO)ccc2n1CC(C)(C)CN(C)C [Compound 2, 3-[1-(3-Dimethylamino-2,2-dimethyl-propyl)-2-isopropyl-1H-benzoimidazol-5-yl]-N-hydroxy-acrylamide]	380 nM	2120 nM	> 30 min	–	–	–
CC(C)Cc1nc2cc(/C=C/C(=O)NO)ccc2n1CCNC(C)C [Compound 35, N-Hydroxy-3-[2-isobutyl-1-(2-isopropylamino-ethyl)-1H-benzoimidazol-5-yl]-acrylamide]	82 nM	660 nM	> 30 min	–	–	–
CCN(CC)CCn1c(CC(C)C)nc2cc(/C=C/C(=O)NO)ccc21 [Compound 7, 3-[1-(2-Diethylamino-ethyl)-2-isobutyl-1H-benzoimidazol-5-yl]-N-hydroxy-acrylamide]	–	810 nM	–	1000 to 5000 nM	1000 to 5000 nM	500 to 1000 nM
CC/C=C\CCc1nc2cc(/C=C/C(=O)NO)ccc2n1CC(C)(C)CN(C)C [Compound 22, 3-[1-(3-Dimethylamino-2,2-dimethyl-propyl)-2-hex-3-enyl-1H-benzoimidazol-5-yl]-N-hydroxy-acrylamide]	64 nM	750 nM	–	1000 to 5000 nM	< 500 nM	< 500 nM
CCCCCCc1nc2cc(/C=C/C(=O)NO)ccc2n1C1CCNC1 (centres unmarked) [Compound 80, 3-(2-Hexyl-1-pyrrolidin-3-yl-1H-benzoimidazol-5-yl)-N-hydroxy-acrylamide]	40 nM	1370 nM	> 30 min	–	–	–
CCCCc1nc2cc(/C=C/C(=O)NO)ccc2n1CCN(C)C(C)C [Compound 78, 3-{2-Butyl-1-[2-(isopropyl-methyl-amino)-ethyl]-1H-benzoimidazol-5-yl}-N-hydroxy-acrylamide]	44 nM	540 nM	> 30 min	–	–	–
CC(C)(C)CCN1CCC(n2cnc3cc(/C=C/C(=O)NO)ccc32)C1 (centres unmarked) [Compound 99, 3-{1-[1-(3,3-Dimethyl-butyl)-pyrrolidin-3-yl]-1H-benzoimidazol-5-yl}-N-hydroxy-acrylamide]	120 nM	1890 nM	–	–	–	–
CCCCc1nc2cc(/C=C/C(=O)NO)ccc2n1CCN(C)CC [Compound 85, 3-{2-Butyl-1-[2-(ethyl-methyl-amino)-ethyl]-1H-benzoimidazol-5-yl}-N-hydroxy-acrylamide]	110 nM	1520 nM	–	–	–	–
CC(C)(C)CCN(CCn1cnc2cc(/C=C/C(=O)NO)ccc21)CC(F)(F)F [Compound 137, 3-(1-{2-[(3,3-Dimethyl-butyl)-(2,2,2-trifluoro-ethyl)-amino]-ethyl}-1H-benzoimidazol-5-yl)-N-hydroxy-acrylamide]	93 nM	1970 nM	–	–	–	–
CCOCc1nc2cc(/C=C/C(=O)NO)ccc2n1CCN(CC)CC [Compound 15, 3-[1-(2-Diethylamino-ethyl)-2-ethoxymethyl-1H-benzoimidazol-5-yl]-N-hydroxy-acrylamide]	85 nM	1500 nM	–	–	–	–
CCCCCc1nc2cc(/C=C/C(=O)NO)ccc2n1CCN(C)CC [Compound 79, 3-{1-[2-(Ethyl-methyl-amino)-ethyl]-2-pentyl-1H-benzoimidazol-5-yl}-N-hydroxy-acrylamide]	40 nM	450 nM	–	–	–	–

More lines, now with the values ahead:

IC50 (HDAC1 enzyme)	GI50 (Colo205 cells)	half-life at 5 μM [1]	GI50 (HCT116)	GI50 (A2780)	GI50 (PC3)	SMILES
64 nM	530 nM	> 30 min	–	–	–	CC(C)NCCn1c(CC(C)(C)C)nc2cc(/C=C/C(=O)NO)ccc21 [Compound 19]
27 nM	160 nM	> 30 min	< 500 nM	< 500 nM	< 500 nM	CCNCCn1c(CC(C)CC(C)(C)C)nc2cc(/C=C/C(=O)NO)ccc21 (centres unmarked) [Compound 40, 3-[1-(2-Ethylamino-ethyl)-2-(2,4,4-trimethyl-pentyl)-1H-benzoimidazol-5-yl]-N-hydroxy-acrylamide]
64 nM	510 nM	> 30 min	–	–	–	C#CCCc1nc2cc(/C=C/C(=O)NO)ccc2n1CCN(CC)CC [Compound 12, 3-[2-But-3-ynyl-1-(2-diethylamino-ethyl)-1H-benzoimidazol-5-yl]-N-hydroxy-acrylamide]
25 nM	210 nM	> 30 min	< 500 nM	< 500 nM	< 500 nM	CCCCCCc1nc2cc(/C=C/C(=O)NO)ccc2n1CCNCC [Compound 52, 3-[1-(2-Ethylamino-ethyl)-2-hexyl-1H-benzoimidazol-5-yl]-N-hydroxy-acrylamide]
43 nM	440 nM	> 30 min	–	–	–	CCCCN(CCn1cnc2cc(/C=C/C(=O)NO)ccc21)C(C)C [Compound 108, 3-{1-[2-(Butyl-isopropyl-amino)-ethyl]-1H-benzoimidazol-5-yl}-N-hydroxy-acrylamide]
45 nM	190 nM	–	500 to 1000 nM	< 500 nM	< 500 nM	CC(Cc1nc2cc(/C=C/C(=O)NO)ccc2n1CC(C)(C)CN(C)C)CC(C)(C)C (centres unmarked) [Compound 23, 3-[1-(3-Dimethylamino-2,2-dimethyl-propyl)-2-(2,4,4-trimethyl-pentyl)-1H-benzoimidazol-5-yl]-N-hydroxy-acrylamide]
–	310 nM	–	500 to 1000 nM	< 500 nM	< 500 nM	CC/C=C\CCc1nc2cc(/C=C/C(=O)NO)ccc2n1CCNCC [Compound 30, 3-[1-(2-Ethylamino-ethyl)-2-hex-3-enyl-1H-benzoimidazol-5-yl]-N-hydroxy-acrylamide]
47 nM	550 nM	> 30 min	–	–	–	CCCCCN(CC)CCn1cnc2cc(/C=C/C(=O)NO)ccc21 [Compound 88, 3-{1-[2-(Ethyl-pentyl-amino)-ethyl]-1H-benzoimidazol-5-yl}-N-hydroxy-acrylamide]
–	170 nM	–	< 500 nM	< 500 nM	< 500 nM	CCCCCCc1nc2cc(/C=C/C(=O)NO)ccc2n1CCNC(C)C [Compound 50, 3-[2-Hexyl-1-(2-isopropylamino-ethyl)-1H-benzoimidazol-5-yl]-N-hydroxy-acrylamide]
70 nM	480 nM	> 30 min	–	–	–	C=CCCc1nc2cc(/C=C/C(=O)NO)ccc2n1CCN(CC)CC [Compound 11, 3-[2-But-3-enyl-1-(2-diethylamino-ethyl)-1H-benzoimidazol-5-yl]-N-hydroxy-acrylamide]
